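Values below derive from 48-hour exposures of cells grown in 96-well plates, with endpoints linearly interpolated between the two concentrations bracketing the appropriate inhibition level. TGI marks complete inhibition of growth.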 Some results are limits rather than exact numbers.

Among the data in PubChem BioAssay (NCI) are TGI values, retold here.

Test systems include 786-0 renal; CCRF-CEM leukemia; HL-60(TB) leukemia; M14 melanoma; MALME-3M melanoma; SK-MEL-2 melanoma; SK-OV-3 ovarian; SW-620 colon; UACC-62 melanoma; DU-145 prostate; NCI/ADR-RES ovarian.
Experiment in all cases: NCI-60 cell line screen, 48 h

On to `COc1cccc(/C(Cl)=C(\C=O)c2cccc(OC)c2)c1`, for which the TGI with 786-0 renal was found to be 38 µM; with CCRF-CEM leukemia it was 28.8 µM; in the test with HL-60(TB) leukemia it was 12.5 µM; with M14 melanoma it was 26.1 µM; in the test with MALME-3M melanoma, 12.8 µM; with SK-MEL-2 melanoma, 32.7 µM. Besides, the TGI was 41.7 µM in the test on SK-OV-3 ovarian, 19.5 µM in the test on SW-620 colon and 18.8 µM in the test with UACC-62 melanoma.
`Cc1nnc2n(c1=O)CCN2C`: the TGI with 786-0 renal, in the test with CCRF-CEM leukemia, with DU-145 prostate, with HL-60(TB) leukemia, in the test on M14 melanoma and in the test on MALME-3M melanoma was above 100 µM each time. Moreover, the TGI in the test on SK-MEL-2 melanoma, in the test on SK-OV-3 ovarian, in the test on SW-620 colon and with UACC-62 melanoma was above 100 µM in each case.
For the molecule `O=NN(CCF)C(=O)NC1CC2CCC1C2` (stereo not drawn), the TGI in the test with CCRF-CEM leukemia, in the test with HL-60(TB) leukemia, in the test on MALME-3M melanoma, with NCI/ADR-RES ovarian, in the test with SK-MEL-2 melanoma and in the test with SK-OV-3 ovarian was above 100 µM in each case. For the same molecule, the TGI with SW-620 colon and in the test with UACC-62 melanoma was above 100 µM in each case.
Turning to `O=C1Nc2cc([N+](=O)[O-])c(Br)cc2C1=O`, the TGI is 35.8 µM in the test on 786-0 renal; 32.1 µM in the test on CCRF-CEM leukemia; 30.1 µM in the test on M14 melanoma; 46.4 µM in the test on MALME-3M melanoma; 71.9 µM in the test with SK-MEL-2 melanoma; above 100 µM in the test on SK-OV-3 ovarian. Further, the TGI in the test on SW-620 colon is 38.6 µM; with UACC-62 melanoma it was 42.4 µM.
For `COc1ccc2nc3c(c(NCCCN(C)C)c2c1)CCCC3`, the TGI in the test on 786-0 renal was determined as 28.8 µM; in the test on CCRF-CEM leukemia, 28.3 µM; in the test with HL-60(TB) leukemia, 29.6 µM; with M14 melanoma, 26.1 µM; with MALME-3M melanoma it was 33.9 µM; with SK-MEL-2 melanoma it was 37.1 µM. Besides, the results for the TGI with SK-OV-3 ovarian, in the test with SW-620 colon and in the test on UACC-62 melanoma were 58.4 µM, 51.5 µM and 31.2 µM, respectively.
As to `CN(C)/C=N\c1ccnc(=O)[nH]1`, the TGI in the test with 786-0 renal, in the test with CCRF-CEM leukemia, in the test on HL-60(TB) leukemia, in the test on M14 melanoma, in the test on MALME-3M melanoma and in the test with SK-MEL-2 melanoma was above 100 µM throughout. The TGI in the test on SK-OV-3 ovarian, with SW-620 colon and with UACC-62 melanoma was above 100 µM in each case.
Take `COC(=O)C1=C(O)C(C(=O)OC)[C@]2(O)[C@@H](C(=O)OC)[C@H]1C[C@@H](c1ccccc1)[C@@H]2C(=O)OC` (stereo partly drawn): the TGI with CCRF-CEM leukemia was 49.3 µM; in the test with DU-145 prostate it was 27 µM; with HL-60(TB) leukemia, above 100 µM; with M14 melanoma it was 24.5 µM; in the test with MALME-3M melanoma, 45.1 µM; in the test with SK-MEL-2 melanoma, 28.2 µM. Moreover, the TGI stood at 47.3 µM in the test on SK-OV-3 ovarian and 25.1 µM in the test on UACC-62 melanoma.
As to `CC1(C)C(CCO)CC1n1ccc(=O)[nH]c1=O` (stereo not drawn), the TGI with 786-0 renal, in the test with CCRF-CEM leukemia, in the test on DU-145 prostate, in the test with M14 melanoma, in the test on NCI/ADR-RES ovarian and with SK-MEL-2 melanoma was above 100 µM each time. In addition, the TGI in the test with SK-OV-3 ovarian, in the test on SW-620 colon and in the test on UACC-62 melanoma was above 100 µM throughout.
With `COc1cc(C2C(Cl)C(=O)N2NC(=O)c2ccc(NC(C)=O)cc2)ccc1O` (stereo not drawn), the TGI in the test with 786-0 renal, in the test on CCRF-CEM leukemia, in the test with HL-60(TB) leukemia, with M14 melanoma, in the test on MALME-3M melanoma and in the test with SK-MEL-2 melanoma was above 100 µM each time. Moreover, the TGI in the test on SK-OV-3 ovarian, in the test on SW-620 colon and in the test with UACC-62 melanoma was above 100 µM each time.
Regarding `COc1ccc(C2OCCN2C)cc1` (stereo not drawn), the TGI in the test with 786-0 renal, in the test on CCRF-CEM leukemia, in the test on M14 melanoma, in the test on MALME-3M melanoma, in the test with NCI/ADR-RES ovarian and with SK-MEL-2 melanoma was above 100 µM in each case. Also, the TGI in the test with SK-OV-3 ovarian, in the test on SW-620 colon and in the test with UACC-62 melanoma was above 100 µM throughout.
Take `Cc1cccc2c1c1ccc3c(c1n2C)C(=O)C=CC3=O`: the TGI in the test on 786-0 renal came to 3.64 µM; in the test with CCRF-CEM leukemia, 3.25 µM; in the test with HL-60(TB) leukemia, 2.94 µM; in the test with M14 melanoma it was 17.9 µM; in the test with MALME-3M melanoma, 14 µM; in the test with SK-MEL-2 melanoma, 33.6 µM. The values for the TGI with SK-OV-3 ovarian, with SW-620 colon and with UACC-62 melanoma were 37.3 µM, 4.33 µM and 26.5 µM, respectively.
As to `CC(=O)NNc1nc(C)c(C(=O)NNC(=O)C(=O)Nc2cccc(C(C)=O)c2)s1`, the TGI with CCRF-CEM leukemia was 67.3 µM; in the test with HL-60(TB) leukemia it was 57.9 µM; in the test on SK-MEL-2 melanoma, above 100 µM; in the test with SK-OV-3 ovarian, 32.5 µM; in the test on SW-620 colon, above 100 µM; in the test on UACC-62 melanoma, 31.4 µM.
Regarding `Cc1cc(NC(=O)C2C3C=CC(O3)C2C(=O)O)no1` (stereo not drawn), the TGI was 34.9 µM in the test with 786-0 renal; 38.5 µM in the test on CCRF-CEM leukemia; 40 µM in the test with HL-60(TB) leukemia; above 100 µM in the test with M14 melanoma; above 100 µM in the test on MALME-3M melanoma; above 100 µM in the test with SK-MEL-2 melanoma. For the same molecule, the TGI in the test on SK-OV-3 ovarian was above 100 µM; with SW-620 colon, 5.92 µM; in the test on UACC-62 melanoma, above 100 µM.
For `CCN(CC)CCCNC(=O)c1cc2cc(NC(=O)c3cc4cc([N+](=O)[O-])ccc4[nH]3)ccc2[nH]1`, the TGI in the test with 786-0 renal, in the test with DU-145 prostate, with M14 melanoma, with NCI/ADR-RES ovarian, with SK-MEL-2 melanoma and in the test on SK-OV-3 ovarian was above 100 µM each time. For the same molecule, the TGI is above 100 µM in the test on SW-620 colon and 96.3 µM with UACC-62 melanoma.
For the molecule `C[S+](C)CC1OC(n2cnc3c(N)ncnc32)C(O)C1O` (stereo not drawn), the TGI in the test on CCRF-CEM leukemia, in the test with HL-60(TB) leukemia, in the test on MALME-3M melanoma, with NCI/ADR-RES ovarian, in the test with SK-MEL-2 melanoma and with SK-OV-3 ovarian was above 225 µM each time. For the same molecule, the values for the TGI with SW-620 colon and in the test on UACC-62 melanoma were above 225 µM and above 200 µM, respectively.
